Laboratory results as given in paper PMC7376644 (Pharmacology Research & Perspectives, 2020).

Key:
CYP1A2 [1] = experiment: CYP selective diagnostic inhibition studies in HLM, furafylline; assay type: in vitro ADME, human; settings: furafylline 10 µmol/L
Experimental: (§1) Reactions were carried out in triplicate in 96 well plates. Each reaction was measured at 2 time points, that is at 0 and 30 minutes. […] Furafylline, KTZ, ticlopidine, and quinidine were used as diagnostic inhibitors for CYP 1A2, 3A4/5, 2C19 and 2D6, respectively. The reactions were initiated by addition of NADPH after a pre‐incubation of 5 minutes at 37°C. All reactions were terminated by the addition of 150 µL ice‐cold ACN. Internal standard (0.2 µmol/L DPZ) was added to ACN prior to termination of the assay. This was followed by centrifugation at 4500 g for 20 minutes. An aliquot (50 µL) supernatant was collected and 5 µL was injected and analyzed by liquid chromatography/tandem mass spectrometry (LC/MS/MS). The percent effect of each inhibitor was the estimated contribution of the inhibited CYP calculated using the relationship below: %contribution=amount remaining with inhibitor‐amount remaining without inhibitor/amount remaining without inhibitor×100.

CYP2D6 = experiment: CYP selective diagnostic inhibition studies in HLM, quinidine; assay type: in vitro ADME, human; settings: quinidine 10 µmol/L
Experimental: as §1

CYP2C19 [2] = experiment: CYP selective diagnostic inhibition studies in HLM, ticlopidine; assay type: in vitro ADME, human; settings: ticlopidine 10 µmol/L
Experimental: as §1

CYP3A4/5 = experiment: CYP selective diagnostic inhibition studies in HLM, ketoconazole; assay type: in vitro ADME, human; settings: ketoconazole 10 µmol/L
Experimental: as §1

HLM [3] = experiment: Intrinsic clearance, substrate depletion approach; assay type: in vitro ADME, human; settings: HLM, substrate depletion, well‐stirred model
Experimental: The generic conditions were previously described by Masimirembwa and co‐workers. ^24 , ^25 Each reaction mixture consisted of substrate incubated with appropriate enzyme, substrate, and NADPH in potassium phosphate buffer pH 7.4 in a final volume of 200 µL. The substrate was diluted to 40% ACN so that the percent organic component in the final solution was maintained at 1%. The reactions were quenched with 3 volumes of stop solution containing ACN and 0.8% formic acid at 0, 5, 10, 20, 30, 40, and 60 minutes. This was followed by centrifugation at 4500 g for 20 minutes. An aliquot (50 µL) supernatant was collected and diluted (1:1) in water prior to LC‐MS/MS analysis.
Each reaction was monitored over 7 time points.
(§2) The well‐stirred model was used to estimate the hepatic clearance (CLH) due to metabolism.

HLM [4] = experiment: Enzyme kinetics of hydroxylated metabolites formation; assay type: in vitro ADME, human
Experimental: The reactions were carried out in duplicate at each time point. Incubation conditions used for the determination of K M and V max were optimized for linearity with respect to time and protein concentrations. […] Metabolites were analyzed by LC‐MS/MS as described below. The K M and V max values of each marker substrate were determined using nonlinear least squares regression analysis in GraFit software (version 3.0, Erithacus Software Limited) and SigmaPlot Enzyme Kinetics Module for Windows 7.0 (SPSS, Inc). […]

[5] = Simcyp prediction of total hepatic clearance; set-up: species or system human
Experimental: The clearance of the incubation mixture was expressed as μL/min/pmol for rCYP.
as §2

[6] = cited from earlier work
[7] = cited from earlier work; remark: listed apart in the source
CYP1A2 [8] = biological target: T1, CYP1A2 (Homo sapiens, UniProt P05177); experiment: Enzyme kinetics of hydroxylated metabolites formation; assay type: in vitro ADME; set-up: purchased CYPEX CYP001; host or cells: Escherichia coli; settings: CYP1A2, formation of cis‐4‐OH‐PZQ
T1 sequence (P05177 1-516): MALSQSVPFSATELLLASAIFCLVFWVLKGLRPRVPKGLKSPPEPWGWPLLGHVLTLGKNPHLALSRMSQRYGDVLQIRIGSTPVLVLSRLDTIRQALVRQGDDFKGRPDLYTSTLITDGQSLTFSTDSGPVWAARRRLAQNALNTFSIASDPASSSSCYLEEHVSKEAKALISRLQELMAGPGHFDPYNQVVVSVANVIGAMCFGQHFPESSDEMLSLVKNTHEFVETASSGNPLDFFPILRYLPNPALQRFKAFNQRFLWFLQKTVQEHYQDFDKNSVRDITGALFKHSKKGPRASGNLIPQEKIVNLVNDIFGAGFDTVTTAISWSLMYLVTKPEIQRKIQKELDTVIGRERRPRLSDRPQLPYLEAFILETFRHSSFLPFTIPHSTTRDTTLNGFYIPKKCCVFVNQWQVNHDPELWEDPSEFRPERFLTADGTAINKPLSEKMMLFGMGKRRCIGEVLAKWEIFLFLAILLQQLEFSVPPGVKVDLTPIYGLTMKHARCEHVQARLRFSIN
Experimental: (§3) The reactions were carried out in duplicate at each time point. Incubation conditions used for the determination of K M and V max were optimized for linearity with respect to time and protein concentrations. […] Metabolites were analyzed by LC‐MS/MS as described below. The K M and V max values of each marker substrate were determined using nonlinear least squares regression analysis in GraFit software (version 3.0, Erithacus Software Limited) and SigmaPlot Enzyme Kinetics Module for Windows 7.0 (SPSS, Inc).
as §2

CYP2C19 [9] = biological target: CYP2C19 (Homo sapiens, UniProt P33261); experiment: as above; assay type: in vitro ADME; set-up: purchased CYPEX CYP008; host or cells: Escherichia coli; settings: CYP2C19, formation of cis‐4‐OH‐PZQ
Chain of CYP2C19 (Homo sapiens, UniProt P33261) (P33261 whole entry): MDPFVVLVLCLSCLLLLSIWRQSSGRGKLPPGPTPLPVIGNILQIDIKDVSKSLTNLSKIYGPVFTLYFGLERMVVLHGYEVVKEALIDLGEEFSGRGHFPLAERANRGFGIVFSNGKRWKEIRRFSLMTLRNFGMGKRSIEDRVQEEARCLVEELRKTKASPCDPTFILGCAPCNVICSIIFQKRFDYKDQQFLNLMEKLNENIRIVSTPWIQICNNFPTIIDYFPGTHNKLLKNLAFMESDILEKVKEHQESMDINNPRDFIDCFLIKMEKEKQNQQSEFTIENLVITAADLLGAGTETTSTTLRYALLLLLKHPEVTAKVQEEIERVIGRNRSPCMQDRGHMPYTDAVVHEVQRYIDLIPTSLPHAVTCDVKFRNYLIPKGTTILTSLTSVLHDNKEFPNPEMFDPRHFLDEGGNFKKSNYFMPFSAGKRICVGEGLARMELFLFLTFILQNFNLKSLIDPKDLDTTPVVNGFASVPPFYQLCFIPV
Experimental: as §3, §2

[10] = cited from earlier work; for Increase of exposure with KTZ: PZQ metabolism inhibited by KTZ

Row | Structure (SMILES) | Contribution of CYP1A2 (CYP1A2 [1]) [%] | Contribution of CYP2D6 (CYP2D6) [%] | Contribution of CYP2C19 (CYP2C19 [2]) [%] | Contribution of CYP3A4/5 (CYP3A4/5) [%] | Predicted CLH (HLM [3]) [mL/min/kg] | K M [SD] (HLM [4]; formation of X‐OH‐PZQ) | V max [SD] (HLM [4]; formation of X‐OH‐PZQ) | K M [SD] (HLM [4]; formation of cis‐4‐OH‐PZQ) | V max [SD] (HLM [4]; formation of cis‐4‐OH‐PZQ) | Predicted total CLH (Simcyp) ([5]; metabolite formation assay) [mL/min/kg] | Predicted total CLH (Simcyp) ([5]; substrate depletion assay) [mL/min/kg] | Oral dose eliminated renally (unchanged drug and metabolites) [6] | Systemic bioavailability [6] [%] | Increase in bioavailability ([6]; co‐administration with cimetidine) [%] | Drug excreted within 24 hours ([6]; in man) | Fraction unbound in plasma (fu) [7] | CLuH,int (CYP1A2 [8]) [mL/min/kg] | CLuH,int (CYP2C19 [9]) [mL/min/kg] | Increase of exposure with KTZ [10] [%] | Amount relative to cis 4‐OH PZQ in vivo ([10]; ref NLeya et al (19)) [times]
1 | O=C(C1CCCCC1)N1CC(=O)N2CCc3ccccc3C2C1 (stereo not drawn) [PZQ, praziquantel] | −54 | 35 | 127 | 97 | 11.70 | 118.6 [35.79] µmol/L | 11.10 [2.074] nmol/min/mg protein | 32.60 [3.982] µmol/L | 0.5978 [0.028] nmol/min/mg protein | 11.44 | 3.656 | More than 80% | < 20 | 100 | more than 80% | 0.2 | 6.870 | 4.600 |  | 
2 | O=C1CN(C(=O)[C@H]2CC[C@@H](O)CC2)CC2c3ccccc3CCN12 (stereo partly drawn) [cis‐4‐OH PZQ, cis‐4‐hydroxy‐PZQ] |  |  |  |  |  |  |  |  |  |  |  |  |  |  |  |  |  |  | 57 | 
3 | O=C(C1CCC(O)CC1)N1CC(=O)N2CCc3ccccc3C2C1 (stereo not drawn) [trans‐4‐OH PZQ, trans‐4‐hydroxy‐PZQ] |  |  |  |  |  |  |  |  |  |  |  |  |  |  |  |  |  |  | 67 | 30
